According to patent publication US12251373B2, “Compounds and methods of treating retinal degeneration” (CASE WESTERN RESERVE UNIVERSITY, priority 2017, dated 2025):
Like-named read-outs stand apart in the source and are kept apart here.

Columns and labels:
Format in all cases: cell-based
[1] = target: mouse P23H opsin mutant (Mus musculus, UniProt P15409, P23H); assay: β-Gal fragment complementation assay: rescue of P23H opsin transport from ER to plasma membrane, U2OS(PLC-EA/P23H-PK) cells; conditions: for Emax: U2OS
Excerpt: U2OS(PLC-EA/P23H-PK) cells. A U2OS stable cell line was generated by DiscoveRx, Inc. (Fremont, CA, USA) for the β-Gal fragment complementation assay used in the small molecule HTS for rescue of P23H opsin transport. U2OS cells that continually express P23H-PK and PLC-EA fusion proteins were generated. Briefly, this small subunit of […] (PK fragment) was fused to the C-terminal of the mouse P23H opsin mutant, while the large EA fragment, a subunit of […], was fused with PLC, a plasma membrane anchored peptide. Both constructs were subcloned by DicoveRx, Inc. and transferred into U2OS cells by viral infections. Positive clones were selected under treatment with hygromycin and geneticin.
Briefly, U2OS(PLC-EA/P23H-PK) cells were suspended in assay medium at 3×10^5 cells mL^−1. The cell suspension was dispensed into 384-well plates (Greiner Bio-one, Monroe, NC, USA) at 20 μL per well, with a Multidrop dispenser (Thermo Scientific, Waltham, MA, USA). Plates with cells then were centrifuged at 200 g for 15 s before incubation at 37° C. with 5% CO2. Plates were removed 24 h later for treatment with tested compounds. A total of 248 plates containing 79,080 compounds from three small molecule libraries were paired with an equal number of assay plates with cultured cells. Due to a limited capacity, these plates were assayed in seven batches. An average of 56.3 nL of 10 mM compound in DMSO was dispensed into each well from column 3 to 22 of paired assay plates using a 50 nL 384-pintool system, such that the final concentration of each compound was 22.52 μM on average. […] Each assay plate was shaken for 5 s before further incubation at 37° C. with 5% CO2. […] Assay plates were incubated in the dark for 60-90 min, and luminescence was read from each assay plate with an Envision microplate reader (PerkinElmer) during a 0.1 s per well integration time. The mean and s.d. of readouts in column 2 of each plate were calculated as Mean0% and SD0%, whereas the average and s.d. of readouts in column 23 were calculated as Mean100% and SD100%. Equation 1: Activity scores (%)=(RLUcp−Mean0%)/(Mean100%−Mean0%)×100%, where RLUcp is the relative luminescence unit derived for cells treated with a compound. Equation 2: Z′-factor=1-3×(SD0%+SD100%)/(Mean100%−Mean0%); Equation 3: signal-to-background (S/B) ratio=Mean100%/Mean0%. Activities of all tested compounds were registered with their compound ID by GeneData Screener (Genedata, Basel, Switzerland) and Pipeline Pilot software (Accelrys, San Diego, CA, USA). Hits, cherry-picked from a separate stock dose-dependent activity test, were selected with an activity score cutoff at 20%. Activity of each hit was tested again with the β-Gal fragment complementation assay in a 10-dose series with each dose tested in triplicate. The 10 doses tested were 80, 40, 20, 10, 5, 2.5, 1.25, 0.625, 0.313, and 0.156 μM. Dose-dependent curves of each hit compound were fitted with GeneData and Origin software.
Detailed synthetic steps are described in FIG. 18. […] YC-002-YC-021 were purchased from commercial vendors including Enamine LLC (Monmouth Jct., NJ, USA), Matrix Scientific (Columbia, SC, USA) and Tokyo Chemical Industry Co., Ltd. (Portland, OR, USA). […] Activities of YC compounds were tested with the β-Gal fragment complementation assay, as described in a prior section. All YC compounds were tested at 10 doses, each in triplicate: 80, 40, 20, 10, 5, 2.5, 1.25, 0.625, 0.313, and 0.156 μM.

[2] = target: T1, mouse P23H opsin (Mus musculus, UniProt P15409, P23H); assay: Immunostain and image-based high-content analysis of P23H mutant opsin in NIH3T3 cells; conditions: ratio of P23H rod opsin fluorescence on plasma membrane to whole cell; for EC50: read-out: Immunostaining HCS MEM-Total ratio EC50
T1 construct: expressed in transfected cells
Excerpt: Three NIH3T3 stable cell lines, NIH3T3-(WT-opsin/GFP), NIH3T3-(P23H-opsin/GFP), and NIH3T3-(GFP) were previously generated which stably express mouse WT opsin and GFP; P23H opsin and GFP; and only GFP, respectively. GFP is expressed separately from opsin in these cell lines. NIH3T3 cells were from ATCC. DNA constructs for generating these stable cell lines were confirmed by Sanger sequencing. Expression of GFP was confirmed by green fluorescence imaging, and expression of P23H and WT opsin were confirmed by immunoblots.
To characterize the effect of active compounds on the localization of P23H mutant opsin in mammalian cells, an image-based assay was used with cells immunostained for WT or P23H mutant opsin protein. Briefly, NIH3T3-(P23H-opsin/GFP) or NIH3T3-(WT-opsin/GFP) cells were seeded at 5,000 cells per well in a 384-well cell-carrier plate (PerkinElmer) and incubated at 37° C. with 5% CO2 for 2 h. Cells were treated with compounds as described for the β-Gal fragment complementation assay and incubated in assay medium for 24 h. The assay medium then was aspirated, and cells were fixed with 4% paraformaldehyde at 20 μL per well for 20 min at RT. Cells were immunostained in one of two ways: cell membranes were either permeabilized with 0.1% Triton X-100 for 15 min or left intact and then were incubated with 10% goat serum (Life Technologies). To detect opsin on the cell plasma membrane only, intact cells were immunostained with 20 μL per well of 20 μg mL^−1 B6-30 anti-rhodopsin antibody that recognizes the N-terminal epitope on the extracellular side of rhodopsin. To detect total opsin, cells were permeabilized with Triton X-100 and immunostained with 50 μg mL^−1 1D4 anti-rhodopsin antibody specific for the C-terminal epitope on the intracellular side of rhodopsin. Opsin immunostaining was visualized by incubating cells with 5 μg mL^−1 Cy3-conjugated goat anti-mouse IgG antibody. Three washes with phosphate-buffered saline (PBS: 10 mM Na2HPO4, 1.8 mM KH2PO4, pH 7.4, 137 mM NaCl, and 2.7 mM KCl) were performed between each step of incubation with antibody. In the last wash with PBS, DAPI was added to each well at 300 nM. Fluorescence images were obtained with the Operetta High Content Imaging System (PerkinElmer) using a 20× long objective. Five fields were taken of each well for cell images using three channels for fluorescence: GFP (100 ms), Cy3 (300 ms), and DAPI (50 ms). Images were analyzed with Acapella software from the Columbus data storage and analysis system (PerkinElmer). For cells immunostained with opsin on the non-permeabilized cell membrane only, an average of total fluorescence intensity of Cy3 per cell was used to quantify opsin in each well of the 384-well plate. For cells immunostained with opsin in permeabilized whole cells, an average ratio of Cy3 intensity on the cell plasma membrane (PM) to that of the entire cell (opsin ratio PM-to-total) was calculated for each well of a 384-well plate to quantify opsin transport to the plasma membrane. The plasma membrane was defined within ±5% of the cell border.

[3] = target: T2, P23H opsin (Mus musculus, UniProt P15409, P23H); assay: Immunoblot of P23H opsin glycosylation in NIH3T3 cells; design: key to Improved glycosylation: n = no; y = yes; conditions: P23H opsin
T2 construct: expressed in transfected cells
Experimental: NIH3T3-(P23H-opsin/GFP) or NIH3T3-(WT-opsin/GFP) cells were seeded in a 48-well plate (Corning Costar) at 3.2×10^5 cells per well and incubated at 37° C. with 5% CO2 for 2 h. One hundred-μL of assay medium containing a compound at 5× its final concentration was added to each well. The plate was gently shaken for 5 s before further incubation at 37° C. with 5% CO2 for 24 h. The assay medium then was aspirated, and cells were lysed with 100 μL per well PBS containing 0.1% Triton X-100 and complete protease inhibitor cocktail (Roche, Basel, Switzerland) followed by sonication for 3 s. Protein concentrations were determined with the Bradford assay. For PNGase F catalyzed deglycosylation, 3 μL of PNGase F (1,500 U, NEB) was added to the cell lysate and the mixture was incubated at room temperature for 1 h before immunoblotting. For NIH3T3-(P23H-opsin/GFP) cells, 15 μg of total protein were loaded per well onto an SDS-polyacrylamide gel; whereas for NIH3T3-(WT-opsin/GFP) cells, 10 μg of total protein was loaded per well. Opsin protein was immunostained with 0.2 μg mL^−1 horseradish peroxidase-conjugated 1D4 anti-rhodopsin antibody. Band intensities were measured with ImageJ software (http://imagej.nih.gov/ij/; National the Institutes of Health, Bethesda, MD, USA) and normalized to a glyceraldehyde 3-phosphate dehydrogenase (GAPDH) loading control.

[4] = Table 5, more than one site modified, read-out: Potency
[5] = Table 2, modifications at C3 of the furan-2(5H)-one ring, read-out: Potency EC50
[6] = Table 1, experimental maximum, read-out: β-Gal fragment complementation assay Activity score (%) Max (Exp)
[7] = Table 1, fitted maximum, read-out: β-Gal fragment complementation assay Activity score (%) Max (fit)
[8] = read-out: β-Gal fragment complementation assay Activity score (%) EC50
[9] = Table 3, modifications at C4 of the furan-2(5H)-one ring, read-out: Potency

O=C1OCC(c2ccc(Br)s2)=C1c1ccc(Cl)cc1 [YC-011]
EC50 [1, 4]: 7.5 µM
Emax ([1]; read-out: Efficacy (%)): 10%

O=C1OCC(c2ccc(Cl)s2)=C1c1ccccc1Cl [YC-032]
EC50 [1, 5]: 5.8 µM
Emax ([1]; read-out: Efficacy (%)): 288%

O=C(C1CC1)N(CCn1cccn1)c1nc2c(Cl)cccc2s1 [Compound F5581-0240]
Immunostaining HCS MEM-Total ratio Max (fit) [2]: 0.010
EC50 [2]: 0.64 µM
Improved glycosylation [3]: y
Emax [1, 6]: 244%
Emax [1, 7]: 230%
EC50 [1, 8]: 5.93 µM

O=C1OCC(c2cccs2)=C1c1cccs1 [YC-002]
EC50 [1, 9]: 33 µM
Emax ([1]; read-out: Efficacy (%)): 6%

Cc1cc(OCC(=O)Nc2cc(N3CCOCC3)ncn2)cc(C)c1Cl [Compound F6257-1860]
Immunostaining HCS MEM-Total ratio Max (fit) [2]: 0.022
EC50 [2]: 1.07 µM
Improved glycosylation [3]: n
Emax [1, 6]: 211%
Emax [1, 7]: 234%
EC50 [1, 8]: 10.7 µM

O=C1OCC(c2ccc(F)s2)=C1c1cccs1 [YC-021]
EC50 [1, 9]: 103 µM
Emax ([1]; read-out: Efficacy (%)): 160%

O=C(NCCn1ncc2c(NCc3ccco3)ncnc21)c1cc(-c2ccccc2)on1 [Compound F2902-1134]
Immunostaining HCS MEM-Total ratio Max (fit) [2]: 0.031
EC50 [2]: 4.15 µM
Improved glycosylation [3]: n
Emax [1, 6]: 23.1%
Emax [1, 7]: 31.5%
EC50 [1, 8]: 21.6 µM

O=C1OCC(c2ccco2)=C1c1cccs1 [YC-049]
Efficacy (%) ([1]; Table 3, normalized to 5 μM 9-cis-retinal): 112%

COCCNC(=O)c1sc2c(cnc3ccc(OC)cc32)c1-c1ccccc1 [Compound F3382-5924]
Immunostaining HCS MEM-Total ratio Max (fit) [2]: 0.046
EC50 [2]: 2.42 µM
Improved glycosylation [3]: y
Emax [1, 6]: 931%
Emax [1, 7]: 155%
EC50 [1, 8]: 28.6 µM

O=C(Cn1c2c(c(=O)n(C3CCCCC3)c1=O)CCC2)Nc1cccc(F)c1 [Compound F5111-0031]
Immunostaining HCS MEM-Total ratio Max (fit) [2]: 0.025
EC50 [2]: 6.76 µM
Improved glycosylation [3]: y
Emax [1, 6]: 60.4%
Emax [1, 7]: 165%
EC50 [1, 8]: 54.3 µM

O=C1OCC(c2ccc(F)cc2)=C1c1cccs1 [YC-044]
EC50 [1, 9]: 37.6 µM
Emax ([1]; read-out: Efficacy (%)): 10%

O=C1OCC(c2ccc(Cl)s2)=C1c1ccccn1 [YC-043]
EC50 [1, 5]: 19 µM
Emax ([1]; read-out: Efficacy (%)): 214%

O=C1OCC(c2ccc(Cl)cc2)=C1c1cccs1 [YC-003]
EC50 [1, 9]: 22 µM
Emax ([1]; read-out: Efficacy (%)): 5%

O=C1OCC(c2ccc(Br)s2)=C1c1ccc(F)cc1 [YC-009]
EC50 [1, 4]: 7.2 µM
Emax ([1]; read-out: Efficacy (%)): 10%

O=C(NCCCOc1cccc2cccnc12)c1cc(-c2ccccc2)on1 [Compound F5875-0200]
Immunostaining HCS MEM-Total ratio Max (fit) [2]: 0.041
EC50 [2]: 6.2 µM
Improved glycosylation [3]: n
Emax [1, 6]: 31.8%
Emax [1, 7]: 51.6%
EC50 [1, 8]: 25 µM

O=C1OCC(c2ccc(Cl)s2)=C1c1cccc(Cl)c1 [YC-034]
EC50 [1, 5]: 4.75 µM
Emax ([1]; read-out: Efficacy (%)): 43.5%

O=C1OCC(c2ccc(Br)s2)=C1c1ccc(Cl)c(Cl)c1 [YC-008]
EC50 [1, 4]: 25 µM
Emax ([1]; read-out: Efficacy (%)): 11%

COc1ccccc1C1=C(c2ccc(Cl)s2)COC1=O [YC-033]
EC50 [1, 5]: 8.5 µM
Emax ([1]; read-out: Efficacy (%)): 38.3%

Cc1sc(C)c(C2C(=O)OC(=O)C2c2c(C)sc(C)c2C)c1C (centres unmarked) [YC-018]
Emax ([1]; read-out: Efficacy (%)): 95%

O=C(NCCCn1cccc1)c1cc(-c2ccccc2)on1 [Compound F5937-0207]
Immunostaining HCS MEM-Total ratio Max (fit) [2]: 0.021
EC50 [2]: 1.33 µM
Improved glycosylation [3]: n
Emax [1, 6]: 32.8%
Emax [1, 7]: 37.3%
EC50 [1, 8]: 8.38 µM

O=C(NCC#CCN1CCCC1)c1cc(-c2ccccc2)on1 [Compound F6244-1415]
Immunostaining HCS MEM-Total ratio Max (fit) [2]: 0.063
EC50 [2]: 4.2 µM
Improved glycosylation [3]: n
Emax [1, 6]: 24.8%
Emax [1, 7]: 25.2%
EC50 [1, 8]: 8.61 µM

O=C1OCC(c2ccc(Cl)s2)=C1c1ccccc1[N+](=O)[O-] [YC-013]
EC50 [1, 5]: 11 µM
Emax ([1]; read-out: Efficacy (%)): 111%
